This is an account of results in patent US20170007620A1 (priority 2015, published 2017).

The structures appear in SMILES notation. “Also recorded” adds a separate entry of the source.

Series [1] relates to one carbon pool products (AMP, ADP, ATP). Description: One carbon pool products (AMP, ADP, ATP) in lymphocytes during DHEA-mediated EGSS (FIG. 5). To be noted: DHEA 10 mg/kg daily per os 90 days ± reconstitution regimen.
For a further series, the system named is IPA. Description: IPA / isopentenylated tRNA quantitation in buffy coat lymphocytes of DHEA-treated neutered dogs (FIG. 3). Type of series: in vivo. As for the experimental part:
(§1) FIG. 3. […] BH4 was assayed by the method of Niederwieser, A. et. al. (J Chromatogr. 1984 May 4; 290:237-46). For IPA quantitation, preliminary in vitro studies were performed in which DHEA-treated and control HT-29SF cells were exposed to [^3H]-mevalonic acid (saponified; data not shown). Total RNA was then isolated using the guanidinium thiocyanate method, hydrolyzed to free bases and isolated on an Aminex A9 column, with UV detection, as previously described (Nyce, J et. al., Proc Natl Acad Sci USA. 1993 Apr. 1; 90(7):2960-4). Increased incorporation of [^3H]-mevalonic acid into isopentenyladenosine peaks was interpreted as reduced pools of free unlabeled IPA into which the [^3H]-IPA equilibrated with high specific activity. (See Shultz and Nyce, Cancer Research 51(24):6563-7, 1992). This was borne out in in vivo experiments in neutered dogs treated with DHEA in which buffy coat lymphocytes were extracted and IPA quantitated with UV detection using the same HPLC procedure. […] Ubiquinone concentrations were quantitated from buffy coat samples by HPLC via the method of Abe, K. et. al., (J Nutr Sci Vitaminol (Tokyo). 1978; 24(6):555-67). For ease of presentation, pretreatment values for all 3 determinations (BH4, IPA and ubiquinone) were given a value of 1, with treatment values presented as their respective fraction thereof. […]

A further series relates to estrogen. Description: Fecal estrogen in neutered female dogs before and after DHEA-mediated EGSS (FIG. 2). The settings on record: feces, DHEA 10 mg/kg p.o.
Another series deals with phenylalanine. Description: Plasma phenylalanine in DHEA-treated neutered dogs (FIG. 10). To be noted: DHEA-treated neutered dogs ± reconstitution protocol.
The subject of a further series is norepinephrine. Description: Urinary free norepinephrine in neutered dogs undergoing DHEA-mediated EGSS (FIG. 9). The series is classed as in vivo. To be noted: 24 hour urine, DHEA 10 mg/kg 90 days ± reconstitution regimen. As for the experimental part:
FIG. 9. […] Urinary free norepinephrine was quantitated by the method of Mell, L D and Gustafson, A B (Clin Chem 23(3): 473-6, 1977), using a Waters HPLC system with a C18 reverse phase column and UV detector. 24 hour urine was collected from neutered male and female animals in amber glass containment vessels. To 100 ml of urine was added 1 ml of concentrated HCL as preservative. […] This treatment continued for 90 days, at which time further urine specimens were collected and assayed for norepinephrine. The data are reported as the mean±SEM. MNNor, norepinephrine levels as quantitated in neutered male dogs; FNNor, norepinephrine levels as quantitated in neutered female dogs.

The subject of a further series is serotonin. Description: Serotonin in intestinal mucosa biopsies of DHEA-treated neutered dogs (FIG. 7). The series is classed as in vivo. The settings on record: DHEA 10 mg/kg daily for 90 days ± supplementation.
For another series, the system named is ubiquinone. The series can be described thus: Ubiquinone concentrations in buffy coat samples of DHEA-treated neutered dogs (FIG. 3). The series is classed as in vivo. As for the experimental part: as §1
For another series, the system named is BH4. Also on record: species or system dogs. To be noted: dog, in vivo.
The subject of series [2] is neutered mixed breed dogs. Description: Physical symptoms / side effects of DHEA-mediated EGSS with and without reconstitution protocol (Table 1).
Description: Physical symptoms associated with DHEA-mediated EGSS-induced Nitric Oxide (NO) depletion.
Another series has as its system NO. The series can be described thus: Nitric oxide depletion and replenishment during DHEA-mediated EGSS. Type of series: in vivo. The settings on record: animals undergoing DHEA-mediated EGSS.
Another series deals with statin-treated cells. The settings on record: cited from earlier work.
Where [3] appears, read: animals undergoing DHEA-mediated EGSS.

Protocol for estrogen: Analyses were made in serum isolated from 4 intact male and 4 neutered male dogs of mixed breed, and in 3 intact female and 4 neutered female dogs of mixed breed. All were between 12 months and 24 months of age, and between 10 and 25 kg. […] For female dogs, estrogen was measured in anestrous for intact dogs. For both intact and neutered female dogs, the feces were collected over a period of 30 days, and thereafter the estrogens were extracted and quantitated using the procedure of Hofmann and Mostl (J Reprod Fertil Suppl 57:67-70, 2001). Results are reported as mean±SEM.
Comparison of testosterone and estrogen in neutered male and female dogs, respectively, before and after DHEA-mediated EGSS. The same neutered dogs from FIG. 1 were utilized. The same methodology was utilized as in FIG. 1. Dogs were exposed to escalating doses of DHEA until normal or near normal levels of testosterone or estradiol were achieved. […] Results are reported as the mean±SEM.
Protocol for phenylalanine: Before treatment, 10-15 ml blood samples were taken from male and female neutered dogs, and plasma was collected by low speed centrifugation by the standard method. The method of Neckers, L M et. al. (Clin Chem 27(1):146-8, 1981) was used to quantitate plasma phenylalanine concentrations, with fluorometric detection (280 nm excitation, 330 nm emission), and a 10 ul injection volume.
Protocol for serotonin: The procedure of D'Souza, L and Glueck, H (Thromb Haemost. 1977 Dec. 15; 38(4):990-1001) was used to quantitate serotonin in intestinal biopsies obtained from neutered male and female dogs. Ten mg of intestinal mucosa was analyzed for each animal. […] Results are presented as percentage of values in pretreatment dogs, mean±SEM. MNSer, serotonin levels as quantitated in neutered male dogs; FNSer, serotonin levels as quantitated in female neutered dogs.

Turning to `Nc1nc(=O)c2c([nH]1)NCC(CNc1ccc(C(=O)N[C@@H](CCC(=O)O)C(=O)O)cc1)N2C=O` (mixture of isomers) [folinic acid], in series [1], the “one carbon pool products (purines, pyrimidines, S-adenosylmethionine; AMP, ADP, ATP)” value is “reconstitution”.

For the compound `C[C@]12CC[C@H](O)CC1=CC[C@@H]1[C@@H]2CC[C@]2(C)C(=O)CC[C@@H]12` [DHEA, Dehydroepiandrosterone], the IPA level result in the series with IPA (exogenous DHEA in amounts sufficient to induce EGSS) is listed as “becomes depleted”. The “total pools of isopentenylated tRNA” value in the series on IPA (neutered dogs treated with DHEA, buffy coat lymphocytes, HPLC UV) is listed as “found to be depleted”. In the series with estrogen, the estrogen level result was “increases”. In addition, the “one carbon pool products (purines, pyrimidines, S-adenosylmethionine; AMP, ADP, ATP)” value in [1] is given as “profoundly depleted; also recorded: Depletion”. Moreover, in the series on phenylalanine, the plasma phenylalanine levels entry was “Increase”. In the series on norepinephrine, the urinary norepinephrine entry was “Depletion”. For the same compound, the serotonin level result in the series with serotonin is listed as “Depletion”. Besides, in the series on ubiquinone (continuous DHEA at doses capable of inducing EGSS, with or without supplementation), the “ubiquinone levels, continuous treatment” value is “decline”. In addition, the “ubiquinone levels, short term” value with ubiquinone (short term DHEA exposure) is “increased”. Besides, in the series with BH4, the BH4 level entry was “depleted”. In addition, the motor incoordination result in series [2] (setting [3]) is on record as “sometimes occurs”. Further, the lower extremity neuropathy result in series [2] (animals undergoing DHEA-mediated EGSS with or without supplementation) was “observed”. The “susceptibility to infections, particularly ear and eye” value in series [2] (dogs and cats, DHEA in amounts sufficient to induce EGSS) is given as “have been noted”. Besides, in series [2] (dogs, DHEA in amounts sufficient to induce EGSS), the fluid retention entry is reported as “has been observed”. In addition, the “side effects of DHEA-mediated EGSS” value in series [2] (doses required to induce EGSS in neutered animals) is “capable of causing many serious side effects; also recorded: auto-inflammatory-like disorder”. Also, the vascular effects result in series [2] (during DHEA-mediated EGSS) is given as “induction of vasoconstriction”. The NO level result in the series with NO was “depleted”.

With `CC(C)=CCNc1ncnc2nc[nH]c12` [Isopentenyladenine], the “activity in restoring DNA synthesis relative to mevalonate” value in the series on statin-treated cells was “approximately 100 fold”.

Consider `N[C@@H](Cc1ccc(O)c(O)c1)C(=O)O` [L-DOPA], for which the emesis result in [2] (dogs, alternative protocol with L-DOPA, pyridoxine, ascorbate, SAMe) is reported as “emesis in some dogs”.

`O=[N+]([O-])[O-].[K+]` [potassium nitrate]: the “symptoms associated with NO depletion” value in series [2] (setting [3]) is “eliminating the symptoms”. Further, in the series with NO, the NO level result is recorded as “can replenish NO”.
